# Results published in patent US12351569B2, “ALDH-2 inhibitor compounds and methods of use” (Amygdala Neurosciences, Inc., priority 2022, dated 2025).
# Columns and labels:
# HepaRG spheroids = assay: HepaRG 3D spheroid assay (hepatotoxic liability); assay type: cell-based; details: minimum effective concentration crossing vehicle control threshold of cell health marker; dosed days 1, 4, 7, 10, 13; 100 μM = highest concentration tested
# From the text: See e.g., Walker et al., “The evolution of strategies to minimise the risk of human drug-induced liver injury (DILI) in drug discovery and development,” (2020) Archives of Toxicology, Vol. 94: 2559-2585, which is hereby incorporated by reference herein in its entirety. […] In applying the HepaRG spheroid assay analysis to determining the hepatoxic liability of ALDH-2 inhibitor compounds, consideration is made of the binding to plasma protein and the limitations to CNS penetration due to the blood-brain barrier.
# E. HepaRG® 3D spheroid assay: The HepaRG 3D spheroid assay is described in Walker et al., “The evolution of strategies to minimise the risk of human drug-induced liver injury (DILI) in drug discovery and development,” (2020) Archives of Toxicology, Vol. 94: 2559-2585. Briefly, HepaRG® cells were seeded into ultra-low adhesion 96-well black walled clear bottomed spheroid microplates. […] At the end of the incubation period, the spheroids were loaded with the relevant dye/antibody for each cell health marker (spheroid count, spheroid size, DNA structure, mitochondrial mass, mitochondrial membrane potential, oxidative stress, glutathione content, and cellular ATP). The plates were then scanned using an automated fluorescent cellular imager, ArrayScan® (Thermo Scientific Cellomics).
# recombinant human ALDH-2 = target: T1, recombinant human ALDH-2 (Homo sapiens, UniProt P05091); assay: ALDH-2 inhibition assay; assay type: biochemical; details: 60 min pre-incubation; 10 μM = highest concentration tested; read-out: Enzymatic Assays IC50 ALDH2
# T1 sequence (P05091 18-517): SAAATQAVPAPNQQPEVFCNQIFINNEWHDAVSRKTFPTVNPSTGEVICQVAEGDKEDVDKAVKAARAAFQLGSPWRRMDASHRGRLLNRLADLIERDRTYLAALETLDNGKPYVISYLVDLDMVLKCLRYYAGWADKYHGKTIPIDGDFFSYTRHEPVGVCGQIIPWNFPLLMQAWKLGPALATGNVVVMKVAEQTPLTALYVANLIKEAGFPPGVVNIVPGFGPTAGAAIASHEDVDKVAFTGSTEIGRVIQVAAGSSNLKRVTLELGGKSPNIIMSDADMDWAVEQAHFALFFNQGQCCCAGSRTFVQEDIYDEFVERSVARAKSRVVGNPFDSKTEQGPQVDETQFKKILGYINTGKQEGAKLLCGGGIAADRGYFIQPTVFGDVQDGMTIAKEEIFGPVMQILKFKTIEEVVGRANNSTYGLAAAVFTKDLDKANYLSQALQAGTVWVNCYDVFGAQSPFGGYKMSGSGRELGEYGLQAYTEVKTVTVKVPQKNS
# Protocol: A. ALDH-2 inhibition assay: The ALDH-2 reaction mixture used in the assay contained 125 μM formaldehyde, 75 μM NAD+, 20 mM NaCl, 10 mM MgCl2, and 20 nM recombinant human ALDH-2 in 50 mM Hepes buffer, pH 7.5 in a final volume of 10 μL using 384-well Corning 3820 plates. After 60 min of pre-incubation of the test ALDH-2 inhibitor compound with ALDH-2, the reaction was started by adding NAD+ and formaldehyde and the assay reaction mixture was allowed to proceed for 60 minutes. Activity of the ALDH-2 enzyme was determined by monitoring NADH formation using Perkin-Elmer Envision Reader with excitation and emission wavelengths set at 340 and 460 nm, respectively.
# recombinant human ALDH-1 = target: T2, recombinant human ALDH-1 (Homo sapiens, UniProt P00352); assay: ALDH-1 inhibition assay; assay type: biochemical; details: 60 min pre-incubation; 10 μM = highest concentration tested; read-out: Enzymatic Assays IC50 ALDH1
# T2 sequence (P00352 1-501): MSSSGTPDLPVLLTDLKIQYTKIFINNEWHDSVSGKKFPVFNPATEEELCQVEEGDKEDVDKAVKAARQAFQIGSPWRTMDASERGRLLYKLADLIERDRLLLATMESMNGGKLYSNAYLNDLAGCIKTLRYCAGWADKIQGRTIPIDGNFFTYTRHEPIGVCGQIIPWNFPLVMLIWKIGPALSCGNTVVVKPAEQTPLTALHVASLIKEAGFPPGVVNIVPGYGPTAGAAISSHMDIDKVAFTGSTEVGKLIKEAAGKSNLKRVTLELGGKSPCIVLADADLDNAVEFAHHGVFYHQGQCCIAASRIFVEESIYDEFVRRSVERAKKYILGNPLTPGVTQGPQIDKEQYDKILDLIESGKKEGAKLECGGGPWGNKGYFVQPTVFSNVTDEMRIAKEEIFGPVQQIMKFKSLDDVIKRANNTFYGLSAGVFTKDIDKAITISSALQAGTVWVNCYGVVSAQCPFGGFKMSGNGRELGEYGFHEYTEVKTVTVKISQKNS
# Protocol: B. ALDH-1 inhibition assay: The ALDH-1 reaction mixture used in the assay contained 100 μM formaldehyde, 2.5 mM NAD+, 20 mM NaCl, 10 mM MgCl2, 1 mM dithiothreitol (DTT; reducing agent), and 50 nM recombinant human ALDH-1 in 50 mM Hepes buffer, pH 7.5 in a final volume of 10 μL using 384-well Corning 3820 plates. After 60 min of pre-incubation of the test ALDH-2 inhibitor compound with ALDH-1, the reaction was started by adding NAD+ and formaldehyde and the assay reaction mixture was allowed to proceed for 60 minutes. Activity of the ALDH-1 enzyme was determined by monitoring NADH formation using Perkin-Elmer Envision Reader with excitation and emission wavelengths set at 340 and 460 nm, respectively.
# MAO-B = target: T3, MAO-B (Homo sapiens, UniProt P27338); assay: MAO-B inhibition assay (luminogenic substrate); assay type: biochemical; details: 20 min pre-incubation; 10 μM = highest concentration tested; read-out: Enzymatic Assays IC50 MAO-B
# T3 sequence (P27338 1-520): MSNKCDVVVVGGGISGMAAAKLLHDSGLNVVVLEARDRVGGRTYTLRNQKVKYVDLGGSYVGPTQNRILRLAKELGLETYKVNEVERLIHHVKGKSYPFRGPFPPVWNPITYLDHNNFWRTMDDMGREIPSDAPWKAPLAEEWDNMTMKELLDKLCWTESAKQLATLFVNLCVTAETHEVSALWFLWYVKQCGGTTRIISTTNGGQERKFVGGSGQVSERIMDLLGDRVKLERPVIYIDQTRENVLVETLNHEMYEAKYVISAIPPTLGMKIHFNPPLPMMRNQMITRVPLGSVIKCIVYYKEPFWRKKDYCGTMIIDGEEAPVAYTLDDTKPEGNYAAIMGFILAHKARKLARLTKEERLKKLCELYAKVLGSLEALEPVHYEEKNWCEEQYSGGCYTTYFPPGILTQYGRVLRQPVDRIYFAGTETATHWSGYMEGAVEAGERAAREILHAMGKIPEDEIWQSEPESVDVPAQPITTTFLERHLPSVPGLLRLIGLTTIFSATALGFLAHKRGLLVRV
# Protocol: (§1) D. MAO-A and MAO-B inhibition assays: MAO assays included luminogenic MAO substrate, reaction buffers, Luciferin Detection, and a reconstitution buffer with esterase. The MAO reaction mixture used in the assay included microsome contained MAO-A (2 μg) or MAO-B (10 μg), 160 μM substrate for MAO-A or 16 μM substrate for MAO-B, MAO-A buffer (100 mM Hepes buffer, pH 7.5, 5% glycerol) or MAO-B buffer (100 mM Hepes, pH 7.5, 5% glycerol, 10% dimethyl sulfoxide) in a final volume of 30 μL. After 20 minutes of pre-incubation of the MAO-A or MAO-B enzyme with the test ALDH-2 inhibitor compound, the reaction was initiated by adding enzyme substrate and the […] reaction was allowed to proceed for 60 minutes. Reconstituted Luciferin Detection Reagent (30 μL) was then added is added to simultaneously stop the MAO reaction and convert the methyl ester derivative to luciferin and produce light. The amount of light produced is directly proportional to the activity of MAO. The mixtures were further incubated for 20 minutes and activity of the enzyme was determined using Perkin-Elmer Envision Reader.
# MAO-A = target: T4, MAO-A (Homo sapiens, UniProt P21397); assay: MAO-A inhibition assay (luminogenic substrate); assay type: biochemical; details: 20 min pre-incubation; 10 μM = highest concentration tested; read-out: Enzymatic Assays IC50 MAO-A
# T4 sequence (P21397 1-527): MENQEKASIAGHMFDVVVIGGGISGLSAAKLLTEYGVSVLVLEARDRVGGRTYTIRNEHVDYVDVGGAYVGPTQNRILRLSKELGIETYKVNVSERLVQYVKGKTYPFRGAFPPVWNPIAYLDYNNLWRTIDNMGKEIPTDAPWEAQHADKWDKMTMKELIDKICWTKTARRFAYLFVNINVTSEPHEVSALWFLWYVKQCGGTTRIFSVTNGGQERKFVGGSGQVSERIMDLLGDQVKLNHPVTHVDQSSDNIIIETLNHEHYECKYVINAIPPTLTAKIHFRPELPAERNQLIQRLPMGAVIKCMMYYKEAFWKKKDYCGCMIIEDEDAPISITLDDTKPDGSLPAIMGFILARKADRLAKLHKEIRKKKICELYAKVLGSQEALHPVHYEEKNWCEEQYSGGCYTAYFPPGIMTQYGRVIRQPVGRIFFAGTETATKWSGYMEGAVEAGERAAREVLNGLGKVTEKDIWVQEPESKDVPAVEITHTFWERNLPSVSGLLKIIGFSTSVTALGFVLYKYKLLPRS
# Protocol: as §1
IC50 (recombinant human ALDH-2) [µM],IC50 (recombinant human ALDH-1) [µM],IC50 (MAO-B) [µM],IC50 (MAO-A) [µM],Structure (SMILES),HepaRG 3D Spheroid MEC (HepaRG spheroids)
0.012,> 10,> 10,> 10,"Cc1cccc(Cl)c1C(=O)NCc1ccc(N2CCNC(=O)C2)nc1 [(1a), 2-chloro-6-methyl-N-((6-(3-oxopiperazin-1-yl)pyridin-3-yl)methyl)benzamide]",54.1 µM
0.008,> 10,> 10,> 10,"O=C1CN(c2ccc(CNC(=O)c3c(Cl)cccc3Cl)cn2)CCN1 [(1d), 2,6-Dichloro-N-((6-(3-oxopiperazin-1-yl)pyridin-3-yl)methyl)benzamide]",29.4 µM
0.058,> 10,> 10,> 10,"O=C1CN(c2ccc(CNC(=O)c3ccccc3Cl)cn2)CCN1 [(1b), 2-Chloro-N-((6-(3-oxopiperazin-1-yl)pyridin-3-yl)methyl)benzamide]",No Effect
0.035,> 10,> 10,> 10,"Cc1nccc(Cl)c1C(=O)NCc1ccc(N2CCNC(=O)C2)nc1 [(1c), 4-Chloro-2-methyl-N-((6-(3-oxopiperazin-1-yl)pyridin-3-yl)methyl)nicotinamide]",No Effect
